Reference: PubChem BioAssay (NCI)
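Test compounds were applied to cells in 96-well plates for 48 hours at 5 doses. GI50 is the concentration that inhibits growth by half. TGI: concentration producing complete growth inhibition.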 The source made the active and inactive calls. Cut-off read from the data, not from the text of the source: active = GI50 below about 0.43 µM; inactive = the rest.

Experiments:
Experiment in all cases: NCI-60 cell line screen, 48 h
HT29 colon = test system: HT29 colon
M14 melanoma = test system: M14 melanoma
UACC-257 melanoma = test system: UACC-257 melanoma
U251 CNS = test system: U251 CNS
SW-620 colon = test system: SW-620 colon
MDA-MB-435 = test system: MDA-MB-435
SK-MEL-5 melanoma = test system: SK-MEL-5 melanoma
MCF7 breast = test system: MCF7 breast
ACHN renal = test system: ACHN renal
SNB-19 CNS = test system: SNB-19 CNS
786-0 renal = test system: 786-0 renal
EKVX NSCLC = test system: EKVX NSCLC
SK-MEL-2 melanoma = test system: SK-MEL-2 melanoma
HCT-116 colon = test system: HCT-116 colon
SR leukemia = test system: SR leukemia
TK-10 renal = test system: TK-10 renal
NCI-H226 lung = test system: NCI-H226 lung
OVCAR-8 ovarian = test system: OVCAR-8 ovarian
RXF 393 renal = test system: RXF 393 renal
HOP-62 NSCLC = test system: HOP-62 NSCLC
KM12 colon = test system: KM12 colon
T-47D breast = test system: T-47D breast
NCI-H23 lung = test system: NCI-H23 lung
UO-31 renal = test system: UO-31 renal
SK-MEL-28 melanoma = test system: SK-MEL-28 melanoma
OVCAR-3 ovarian = test system: OVCAR-3 ovarian
SNB-75 CNS = test system: SNB-75 CNS
DU-145 prostate = test system: DU-145 prostate
SK-OV-3 ovarian = test system: SK-OV-3 ovarian
LOX IMVI melanoma = test system: LOX IMVI melanoma
K-562 leukemia = test system: K-562 leukemia
MOLT-4 leukemia = test system: MOLT-4 leukemia
SF-268 CNS = test system: SF-268 CNS
NCI-H522 lung = test system: NCI-H522 lung
CCRF-CEM leukemia = test system: CCRF-CEM leukemia
CAKI-1 renal = test system: CAKI-1 renal
HS 578T breast = test system: HS 578T breast
OVCAR-5 ovarian = test system: OVCAR-5 ovarian
NCI/ADR-RES ovarian = test system: NCI/ADR-RES ovarian
A498 renal = test system: A498 renal
PC-3 prostate = test system: PC-3 prostate
MDA-MB-231 breast = test system: MDA-MB-231 breast
A549 NSCLC = test system: A549 NSCLC
HCC-2998 colon = test system: HCC-2998 colon
HL-60(TB) leukemia = test system: HL-60(TB) leukemia
SF-539 CNS = test system: SF-539 CNS
HCT-15 colon = test system: HCT-15 colon
BT-549 breast = test system: BT-549 breast
MALME-3M melanoma = test system: MALME-3M melanoma
NCI-H460 lung = test system: NCI-H460 lung
SN12C renal = test system: SN12C renal
UACC-62 melanoma = test system: UACC-62 melanoma
IGROV1 ovarian = test system: IGROV1 ovarian
OVCAR-4 ovarian = test system: OVCAR-4 ovarian
COLO 205 colon = test system: COLO 205 colon
SF-295 CNS = test system: SF-295 CNS
RPMI-8226 leukemia = test system: RPMI-8226 leukemia

Clc1ccc(CN2COc3c(ccc4cccnc34)C2)cc1Cl
GI50 (HT29 colon): 4.05 µM | TGI (HT29 colon): 15.2 µM | GI50 (M14 melanoma): 1.26 µM | TGI (M14 melanoma): 4.74 µM | GI50 (UACC-257 melanoma): 2.53 µM | TGI (UACC-257 melanoma): 7.89 µM | GI50 (U251 CNS): 0.966 µM | TGI (U251 CNS): 13.2 µM | GI50 (SW-620 colon): 1.28 µM | TGI (SW-620 colon): 5.39 µM | GI50 (MDA-MB-435): 1.96 µM | TGI (MDA-MB-435): 9.18 µM | GI50 (SK-MEL-5 melanoma): 0.971 µM | TGI (SK-MEL-5 melanoma): 2.9 µM | GI50 (MCF7 breast): 0.697 µM | TGI (MCF7 breast): 3.59 µM | GI50 (ACHN renal): 0.525 µM | TGI (ACHN renal): 10.6 µM | GI50 (SNB-19 CNS): 1.98 µM | TGI (SNB-19 CNS): 14.3 µM | GI50 (786-0 renal): 1.99 µM | TGI (786-0 renal): 5.85 µM | GI50 (EKVX NSCLC): 1.31 µM | TGI (EKVX NSCLC): 15.2 µM | GI50 (SK-MEL-2 melanoma): 2.15 µM | TGI (SK-MEL-2 melanoma): 7.47 µM | GI50 (HCT-116 colon): 0.712 µM | TGI (HCT-116 colon): 2.78 µM | GI50 (SR leukemia): 0.354 µM | TGI (SR leukemia): 1.41 µM | GI50 (TK-10 renal): 3.35 µM | TGI (TK-10 renal): 17.9 µM | GI50 (NCI-H226 lung): 1.28 µM | TGI (NCI-H226 lung): 7.12 µM | GI50 (OVCAR-8 ovarian): 0.73 µM | TGI (OVCAR-8 ovarian): 10.2 µM | GI50 (RXF 393 renal): 1.05 µM | TGI (RXF 393 renal): 4.1 µM | GI50 (HOP-62 NSCLC): 1.49 µM | TGI (HOP-62 NSCLC): 10.9 µM | GI50 (KM12 colon): 1.2 µM | TGI (KM12 colon): 4.49 µM | GI50 (T-47D breast): 1.68 µM | TGI (T-47D breast): 11.3 µM | GI50 (NCI-H23 lung): 2.56 µM | TGI (NCI-H23 lung): 14.9 µM | GI50 (UO-31 renal): 0.4 µM | TGI (UO-31 renal): 10.5 µM | GI50 (SK-MEL-28 melanoma): 1.47 µM | TGI (SK-MEL-28 melanoma): 14.2 µM | GI50 (OVCAR-3 ovarian): 0.468 µM | TGI (OVCAR-3 ovarian): 12.1 µM | GI50 (SNB-75 CNS): 2.36 µM | TGI (SNB-75 CNS): 13.4 µM | GI50 (DU-145 prostate): 1.77 µM | TGI (DU-145 prostate): 14.8 µM | GI50 (SK-OV-3 ovarian): 1.34 µM | TGI (SK-OV-3 ovarian): 13.1 µM | GI50 (LOX IMVI melanoma): 1.01 µM | TGI (LOX IMVI melanoma): 2.7 µM | GI50 (K-562 leukemia): 0.895 µM | TGI (K-562 leukemia): 2.68 µM | GI50 (MOLT-4 leukemia): 1.55 µM | TGI (MOLT-4 leukemia): 4.89 µM | GI50 (SF-268 CNS): 1.32 µM | TGI (SF-268 CNS): 12.1 µM | GI50 (NCI-H522 lung): 1.1 µM | TGI (NCI-H522 lung): 2.61 µM | GI50 (CCRF-CEM leukemia): 0.578 µM | TGI (CCRF-CEM leukemia): 3.69 µM | GI50 (CAKI-1 renal): 3.28 µM | TGI (CAKI-1 renal): 13.2 µM | GI50 (HS 578T breast): 1.96 µM | TGI (HS 578T breast): 10.1 µM | GI50 (OVCAR-5 ovarian): 1.79 µM | TGI (OVCAR-5 ovarian): 15.2 µM | GI50 (NCI/ADR-RES ovarian): 0.394 µM | TGI (NCI/ADR-RES ovarian): 2.15 µM | GI50 (A498 renal): 1.72 µM | TGI (A498 renal): 11.8 µM | GI50 (PC-3 prostate): 0.798 µM | TGI (PC-3 prostate): 11.5 µM | GI50 (MDA-MB-231 breast): 1.32 µM | TGI (MDA-MB-231 breast): 9.92 µM | GI50 (A549 NSCLC): 1.64 µM | TGI (A549 NSCLC): 12.9 µM | GI50 (HCC-2998 colon): 2.28 µM | TGI (HCC-2998 colon): 8.77 µM | GI50 (HL-60(TB) leukemia): 0.297 µM | TGI (HL-60(TB) leukemia): 1.3 µM | GI50 (SF-539 CNS): 1.28 µM | TGI (SF-539 CNS): 3.72 µM | GI50 (HCT-15 colon): 0.483 µM | TGI (HCT-15 colon): 15.5 µM | GI50 (BT-549 breast): 2.46 µM | TGI (BT-549 breast): 17.5 µM | GI50 (MALME-3M melanoma): 2.23 µM | TGI (MALME-3M melanoma): 9.16 µM | GI50 (NCI-H460 lung): 0.532 µM | TGI (NCI-H460 lung): 2.52 µM | GI50 (SN12C renal): 2.04 µM | TGI (SN12C renal): 13.8 µM | GI50 (UACC-62 melanoma): 0.584 µM | TGI (UACC-62 melanoma): 2.41 µM | GI50 (IGROV1 ovarian): 1.05 µM | TGI (IGROV1 ovarian): 3.61 µM | GI50 (OVCAR-4 ovarian): 0.531 µM | TGI (OVCAR-4 ovarian): 12.9 µM | GI50 (COLO 205 colon): 3.18 µM | TGI (COLO 205 colon): 11.9 µM | GI50 (SF-295 CNS): 2.35 µM | TGI (SF-295 CNS): 12.6 µM

CS(C)(=O)=O
outcome (HT29 colon): inactive | outcome (M14 melanoma): inactive | outcome (UACC-257 melanoma): inactive | outcome (U251 CNS): inactive | outcome (SW-620 colon): inactive | outcome (MDA-MB-435): inactive | outcome (SK-MEL-5 melanoma): inactive | outcome (MCF7 breast): inactive | outcome (ACHN renal): inactive | outcome (SNB-19 CNS): inactive | outcome (786-0 renal): inactive | outcome (EKVX NSCLC): inactive | outcome (SK-MEL-2 melanoma): inactive | outcome (HCT-116 colon): inactive | outcome (SR leukemia): inactive | outcome (TK-10 renal): inactive | outcome (NCI-H226 lung): inactive | outcome (OVCAR-8 ovarian): inactive | outcome (RXF 393 renal): inactive | outcome (HOP-62 NSCLC): inactive | outcome (KM12 colon): inactive | outcome (T-47D breast): inactive | outcome (NCI-H23 lung): inactive | outcome (UO-31 renal): inactive | outcome (SK-MEL-28 melanoma): inactive | outcome (OVCAR-3 ovarian): inactive | outcome (SNB-75 CNS): inactive | outcome (DU-145 prostate): inactive | outcome (SK-OV-3 ovarian): inactive | outcome (LOX IMVI melanoma): inactive | outcome (K-562 leukemia): inactive | outcome (MOLT-4 leukemia): inactive | outcome (SF-268 CNS): inactive | outcome (NCI-H522 lung): inactive | outcome (CCRF-CEM leukemia): inactive | outcome (CAKI-1 renal): inactive | outcome (HS 578T breast): inactive | outcome (OVCAR-5 ovarian): inactive | outcome (NCI/ADR-RES ovarian): inactive | GI50 (A498 renal): 42000 µM | outcome (PC-3 prostate): inactive | outcome (MDA-MB-231 breast): inactive | outcome (A549 NSCLC): inactive | outcome (HL-60(TB) leukemia): inactive | outcome (SF-539 CNS): inactive | outcome (HCT-15 colon): inactive | outcome (BT-549 breast): inactive | outcome (MALME-3M melanoma): inactive | outcome (NCI-H460 lung): inactive | outcome (SN12C renal): inactive | outcome (UACC-62 melanoma): inactive | outcome (IGROV1 ovarian): inactive | outcome (OVCAR-4 ovarian): inactive | outcome (COLO 205 colon): inactive | outcome (RPMI-8226 leukemia): inactive | outcome (SF-295 CNS): inactive
